Measured values taken from the OPERA property sets (Mansouri et al. 2018).

Row | Structure (SMILES) | logP
1 | CCCCSc1ccccc1OC(=O)NC | 2.98
2 | O=[N+]([O-])c1nccn1CC(O)CCl (centres undefined) | 0.15
3 | CCc1cnc2cccc(C)n2c1=O | 1.79
4 | C[N+](C)(C)Cc1cccc(N)c1.[Br-] | -2.5
5 | CC12CCC(=O)C=C1C1(CC1)CC1C2CCC2(C)C1CCC21CCC(=O)O1 (centres undefined) | 3.15
6 | CC(C)(C)c1cc(OC2OC(CO)C(O)C(O)C2O)cc(C(C)(C)C)c1 (centres undefined) | 2.73
7 | O=C1CN=C(c2ccccc2)c2ccccc2N1 | 2.18
8 | O=C(Nc1ccccc1)c1cc(N2CC2)c([N+](=O)[O-])cc1[N+](=O)[O-] | 2.23
9 | Cc1cc(NC(=O)N(C)C)cc(C)c1Br | 2.92
10 | COc1ccnc(-n2nc(C)cc2OC)n1 | 1.01
11 | CCC(=O)Nc1n[nH]c(NC(=O)CC)n1 | 0.07
12 | COCN1C(=O)C(O)N=C(c2ccccc2)c2cc(N)ccc21 (centres undefined) | 0.75
13 | COCN1C(=O)CN=C(c2ccccc2Cl)c2cc(Cl)ccc21 | 3.23
14 | O=[N+]([O-])C=Cc1ccccc1[N+](=O)[O-] | 1.8
15 | COP(=O)(OC)Oc1cc(C)c([N+](=O)[O-])c(C)c1 | 2.57
16 | CC(=O)OCC1=C(C(=O)O)N2C(=O)C(NC(=O)CSc3cc(Cl)ccc3Cl)C2SC1 (centres undefined) | 1.66
17 | O=S(=O)(Nc1ccc(Cl)cc1Cl)C(F)(F)F | 3.88
18 | COc1cc(Cc2cnc(N)nc2N)cc(OC)c1SC | 1.54
19 | CCC(C)NP(=O)(OC)SC (centres undefined) | 0.95
20 | NC1CC2CC1c1ccc(C(F)(F)F)cc12 (centres undefined) | 2.91

Row | Structure (SMILES) | logP
21 | CCSc1nnc(C(C)C)c(=O)n1N | 1.52
22 | O=C(CNC(=O)c1ccccc1)Oc1cccc(F)c1 | 2.58
23 | CNC1=NC(=O)C(=CC=Cc2ccc([N+](=O)[O-])o2)S1 | 1.35
24 | COc1ccc(C=C[N+](=O)[O-])cc1 | 2.2
25 | CCC[n+]1cccc2ccccc21.[Br-] | -2.52
26 | CCCCC(=O)NN | -0.11
27 | Clc1ccccc1-c1ccc(Cl)c(Cl)c1Cl | 6.11
28 | COP(=O)(NCC(C)C)SC (centres undefined) | 0.97
29 | COP(=O)(OC)Oc1ccc([N+](=O)[O-])cc1Cl | 1.83
30 | COc1cc(OC)c(N=C2NCCN2)cc1Cl | 1.38
31 | CC(C)n1nnc2ccccc21 | 1.98
32 | Oc1ccc(C(c2ccncc2)c2ccc(O)cc2)cc1 | 3.24
33 | O=C1CN=C(c2ccccc2F)c2cc(Cl)ccc2N1 | 2.7
34 | COc1cc(-n2c(C)cc(=O)n2C)nc(C)n1 | 0.38
35 | CN(C)c1nc2ccccc2o1 | 2.1
36 | CCOC(=O)C(C#N)=NNc1cc(Cl)c(Cl)cc1Cl | 5.21
37 | CS(=O)(=O)CCCOc1ccc([N+](=O)[O-])cc1 | 0.93
38 | CCOc1cc(Cc2cnc(N)nc2N)cc(OC)c1C(C)(C)O | 2.11
39 | CC12CCC(=O)C=C1CCC1C3CCC4(CCC(=O)O4)C3(C)CC3OC312 (centres undefined) | 1.89
40 | COC(=O)C1CCCC(NC(=O)N(CCCl)N=O)C1 (centres undefined) | 1.89

Row | Structure (SMILES) | logP
41 | Nc1ccc(C(=O)Oc2ccc(Cl)cc2Cl)c(O)c1 | 4.27
42 | CCC(C)c1ccccc1OC(=O)N(C)C (centres undefined) | 3.31
43 | CCCCNC(=O)NN | -0.6
44 | Cc1cc(C)cc(OC(=O)CNC(=O)c2ccccc2)c1 | 3.4
45 | CCOP(=S)(OCC)Oc1ccc(SC)c(Cl)c1 | 5.06
46 | COc1ccc(CCCC(=O)O)cc1 | 2.33
47 | COc1ccc(C2=NCC(=O)N(C)c3ccc(Cl)cc32)cc1 | 3.15
48 | NNC(=O)c1ccc(O)cc1 | -0.33
49 | CCCC(=O)NC(=O)NC(=O)CCC | 1.4
50 | CCCCC(C)n1nnc2ccccc21 (centres undefined) | 3.44
51 | OCC1OC(Sc2ccccc2)C(O)C(O)C1O (centres undefined) | -0.56
52 | CCOP(=O)(OCC)Oc1ccc(SC)c(C)c1 | 3.28
53 | NC(=O)c1cccs1 | 0.52
54 | O=C(O)CCCCCCCN1C(=O)C=CC1=O | 1.99
55 | CC1=Nc2ccc(Br)cc2S(=O)(=O)N1 | 1.37
56 | O=C(Cn1ccnc1[N+](=O)[O-])N(CO)CO | -1.59
57 | O=c1nc(-c2ccccc2)c2cc(Br)ccc2[nH]1 | 2.71
58 | Clc1cccc(-c2ccccc2)c1Cl | 5.02
59 | COc1ccccc1N1C(=O)CCC1=O | -0.02
